Assay type in all cases: binding
The target of assay [1] is T1, DCAF11 (Homo sapiens, UniProt Q8TEB1). Briefly: Affinity-based enrichment (biotin-streptavidin pulldown) in Hep G2 cells overexpressing HA-DCAF11. Further details: host or cells: Hep G2. To be noted: Hep G2 cells overexpressing HA-DCAF11; 10 μM probe, 2 h. As for the experimental part: Hep G2 cells (1 × 10^6 cells/well) were seeded in 6-well plates and incubated for 24 h. On the next day, the cells were transfected with 1 µg pCMV3-N-HA-DCAF11 plasmid (Sino Biological, HG16257-NY) or 1 µg empty vector (pcDNA3.1(+), Thermo Fisher, V79020) and 2.5 µL FuGENE® HD transfection reagent (Promega, E2311) per well. The cells were incubated for 48 h prior to treatment with 100 μM compound 2 for 1 h. […] The cells were washed with ice-cold PBS, then lysed in lysis buffer (150 mM sodium chloride, 1% NP-40, 50 mM TRIS-HCl, pH 8.0 with complete protease inhibitor cocktail (Roche, 11836170001)) for 30 min on ice. After centrifugation at 16,000 x g, the supernatant was transferred into a new tube and the protein concentration was determined using the DC protein assay (BIO-RAD, 5000116).
T1 sequence (Q8TEB1 whole entry): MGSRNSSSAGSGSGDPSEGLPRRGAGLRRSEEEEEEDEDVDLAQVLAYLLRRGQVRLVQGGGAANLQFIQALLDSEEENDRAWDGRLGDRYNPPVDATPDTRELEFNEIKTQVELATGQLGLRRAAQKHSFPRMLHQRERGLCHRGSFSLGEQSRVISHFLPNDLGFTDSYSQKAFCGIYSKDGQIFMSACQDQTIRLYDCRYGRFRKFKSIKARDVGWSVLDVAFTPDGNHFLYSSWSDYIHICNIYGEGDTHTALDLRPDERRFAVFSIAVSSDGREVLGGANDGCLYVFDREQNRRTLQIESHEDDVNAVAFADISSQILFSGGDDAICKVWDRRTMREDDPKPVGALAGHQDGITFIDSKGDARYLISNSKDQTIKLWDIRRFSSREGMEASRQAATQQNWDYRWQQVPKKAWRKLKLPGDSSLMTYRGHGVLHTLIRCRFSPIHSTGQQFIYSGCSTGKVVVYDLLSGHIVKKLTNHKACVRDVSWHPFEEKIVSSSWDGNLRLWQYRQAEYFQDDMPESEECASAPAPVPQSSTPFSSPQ
The supernatant was discarded and 1 mg of lysate in 500 µL lysis buffer was added to the beads and incubated for 1 h at room temperature with overhead rotation. The beads were washed twice with 500 µL washing buffer (50 mM PIPES (pH 7.4), 50 mM NaCl, 75 mM MgCl2, 5 mM EGTA, 0.1% NP-40, 0.1% Triton X-100, 0.1% Tween20) and twice with PBS for 10 min each at room temperature with overhead rotation. Enriched proteins were eluted by boiling of the beads at 95 °C for 5 min in 20 µL of a supersaturated (25 mM) biotin solution and visualized by Western Blotting as described above.

In assay [2] the target is T2, LC3B (Homo sapiens, UniProt Q9GZQ8). Briefly: Fluorescence polarization with LC3B protein. Further details: His (N); made in house; host or cells: E. coli BL21DE3 RIL. To be noted: for Fluorescence Polarization (mP): probe 18 at 100 µM. The method, then:
The LC3B open reading frame was cloned into pOPINE-NHis by the Dortmund protein Facility (DPF). pOPINE-NHis-LC3B was transformed into BL21DE3 RIL K+. Cells were cultured in TB medium supplemented with ampicillin and chloramphenicol (Amp/Cam), 1% glucose and 2 mM MgSO4. A 10 L culture was incubated in TB/Amp with 0.01 % lactose monohydrate, 2 mM MgSO4 for 4 h at 37 °C followed by overnight incubation at 20 °C. Cells were lysed using sonication in a buffer containing 50 mM HEPES (pH 7.5), 300 mM NaCl, 10 mM imidazole, 1 mM 2-mercaptoethanol, 1 mM PMSF and DNase. Upon centrifugation, the supernatant was applied onto Ni NTA column. The column was washed using 50 mM HEPES (pH 7.5), 300 mM NaCl, 30 mM imidazole, 1 mM 2-mercaptoethanol. The protein was eluted in 50 mM HEPES pH 7.5, 300 mM NaCl, 300 mM imidazole, 1 mM 2-mercaptoethanol prior to size exclusion chromatography using 26/60 G75 column and 25 mM HEPES pH 7.5, 150 mM NaCl and1 mM DTE.
The assay was performed in black, 384 well plates with a total volume of 20 µl per well using a buffer solution comprising 50 mM Tris, 300 mM NaCl and 1 mM 2-mercaptoethanol, pH 7.5. The BODIPY labelled compound 18 was tested at a final concentration of 100 µM, and the LC3B protein was titrated in two-fold dilution series. The plates were incubated at 20°C for 30 min, and fluorescence polarization was measured using a Tecan Spark plate reader at ex/em 502 / 511 nm.
On the technique in general: Polarisation of emitted light reports the rotation of a fluorescent probe.

Assay [3] has as its target T1, DCAF11. Briefly: In-gel fluorescence labelling of purified DCAF11. The following applies: 40 min; in-gel fluorescence. As for the experimental part:
Purified DCAF11 protein (1 μg, Origene, TP760719) was diluted in PBS buffer that is mixed with compound 2 or BODIPY derivative 18 at the indicated concentration at room temperature. Samples were diluted with 5 × SDS sample loading buffer and heated at 95 °C for 5 min. Proteins were separated using SDS-PAGE and were visualized using the ChemiDoc MP Imaging System (BIO-RAD) at 488 nm and the results were analyzed by Image Lab (BIORAD).

For assay [4], the target named is T2, LC3B. Briefly: Thermal shift assay with LC3B. The following applies: 15 µM LC3B; 60 µM compound; Glo-Melt dye. The method, then:
For thermal shift analysis, 15 µM of human LC3B was dispensed into 384-well plates (Hard-Shell 384-well 480 PCR plates, BioRAD #HSR4805) in buffer (50 mM Tris/HCl pH 7.4, 100 mM NaCl, 1 mM GSH and 0.02% CHAPS) with a Certus Flex liquid dispenser (Gyger). 60 µM compounds in DMSO (n4 or DMSO (0.6%) as control were added with an Echo 520 acoustic liquid handler (Labcyte). Glo-Melt dye was added (final concentration: 1/100), plates sealed with Lightcycler 480 Sealing Foils (Roche, #04 729 757 001) and mixed by short centrifugation (1 min, 60 g and room temeprature). A Lightcycler 480 II (Roche) was used for thermal shift curves with a temperature gradient from 20 to 95 °C according to the manufacturer´s protocol. Protein melting curves were analyzed, and the difference in meting temperature (ΔTm) was calculated with LightCycler Thermal Shift Analysis software (ROCHE) and visualized by Graphpad Prism (Version 9.5.1).

Where “and” joins values, the source holds several entries; their conditions need not be identical. Equal entries are not always repeated.

Regarding `O=C(CCCCC1SC[C@@H]2NC(=O)N[C@H]12)NCCOc1c(Br)cc(/C=C2\C(=O)Nc3ccc(Br)cc32)cc1Br` (stereo partly shown) [Compound 14], the “enrichment of DCAF11 by pulldown” value on DCAF11 [1] was “enriched DCAF11 protein”.

For `Cc1cc(C)n2c1C=C1C=CC(CCC(=O)NCCOCCOCCOCCOc3c(Br)cc(C=C4C(=O)Nc5ccc(Br)cc54)cc3Br)=[N+]1[B-]2(F)F` [Compound 18], the “binding to LC3B in fluorescence polarization” value at LC3B [2] (18 at 100 µM, LC3B titrated) is listed as “failed to bind”. The “Fluorescence Polarization (mP)” value on LC3B [2] (LC3B protein concentration 0.00610352 µM) is 132 mP and 130 mP and 100 mP and 97 mP; at LC3B [2] (LC3B protein concentration 0.012207 µM), 127 mP and 128 mP and 102 mP and 96 mP; at LC3B [2] (LC3B protein concentration 0.0244141 µM), 129 mP and 121 mP and 108 mP and 110 mP; at LC3B [2] (LC3B protein concentration 0.0488281 µM), 132 mP and 133 mP and 107 mP and 105 mP; at LC3B [2] (LC3B protein concentration 0.0976562 µM), 127 mP and 130 mP and 115 mP and 111 mP; on LC3B [2] (LC3B protein concentration 0.195312 µM), 131 mP and 136 mP and 106 mP and 103 mP. Also, the “Fluorescence Polarization (mP)” value at LC3B [2] (LC3B protein concentration 0.390625 µM) is 133 mP and 127 mP and 116 mP and 109 mP; on LC3B [2] (LC3B protein concentration 0.78125 µM), 135 mP and 112 mP and 108 mP; at LC3B [2] (LC3B protein concentration 1.5625 µM) it was 138 mP and 134 mP and 112 mP and 113 mP; on LC3B [2] (LC3B protein concentration 3.125 µM), 132 mP and 138 mP and 112 mP and 108 mP; at LC3B [2] (LC3B protein concentration 6.25 µM), 132 mP and 131 mP and 113 mP and 111 mP; on LC3B [2] (LC3B protein concentration 12.5 µM), 108 mP and 101 mP and 138 mP and 135 mP. Moreover, the “Fluorescence Polarization (mP)” value is 110 mP and 132 mP and 130 mP on LC3B [2] (LC3B protein concentration 25 µM); 107 mP and 101 mP and 132 mP and 133 mP at LC3B [2] (LC3B protein concentration 50 µM); 102 mP and 138 mP and 134 mP on LC3B [2] (LC3B protein concentration 100 µM). At DCAF11 [3], the “binding (fluorescence labelling) to purified DCAF11” value is “binds to purified DCAF11 in a concentration-dependent manner”.

Regarding DC-LC3in-D5 [reference compound], the “change of melting temperature of LC3B (ΔTm)” value on LC3B [4] was 13 °C.

The values are drawn from publication PMC10689823, “Discovery of a Drug-like, Natural Product-Inspired DCAF11 Ligand Chemotype” (Nature Communications, 2023).
